Assays:
[1] = system: MCF-7 tumors; assay: Growth of MCF-7 breast carcinoma implanted in nude mice; format: in vivo; conditions: for Tumor size (mean ± standard error): 20 mg/kg ERA-923 PO qd days 1-35
Method: In the third standard pharmacological test procedure, mice implanted with MCF-7 tumors were treated with a combination of ERA-923 and CCI-779. […] ERA-923 was dissolved in 1% Tween 80 and 0.9% NaCl Injection USP. Drug was aliquoted into daily doses using 10.0 ml glass bottles and frozen at −20° C. until needed. CCI-779 was made fresh using a 5% ETOH, 4.9% Phosal and 0.1% Tween 80 in Sterile Water. 0.2 ml of each drug was given orally starting the day after tumor implantation. ERA 923 was given daily for the duration of the experiment and CCI-779 was given every other day for the first 10 days. The control vehicles were given on the same regime as the drugs. MCF7 cells were cultured in IMEM containing 5% Fetal Bovine Serum with passages varying from 2-20. After trypsinization tumors were resuspended in IMEM with 2% Serum at a 1:1 ratio with Matrigel. 10 million cells were injected subcutaneously into the mammary tissue of each mouse using a 1.0 ml tuberculin syringe with a 23 3/4 gauge needle. Five to six week old female ovariectomized athymic nu/nu mice (Charles River Labs: Wilmington, Mass.) weighing from 20.0-23.0 g were used. The animals were housed 5 to a cage in a Microisolator Open Rack System (Lab Products: Maywood, N.J.). Each mouse received a 17β-Estradiol pellet (0.72 mg/pellet-60 day release). The pellets were injected with a 10 gauge trochar into the lateral side of the neck between the ear and the shoulder 1-2 weeks prior to tumor injection. Control groups were 15 mice/vehicle whereas the drug groups were 10 mice/drug. Tumors were measured weekly by means of solar calipers (Cole-Parmer Instuments: Vernon Hills, Ill.) and tumor weights were estimated from tumor diameters by the following formula:
Tumor weight (mg)=tumor length (mm)×tumor width (mm)^2/2.
Mice were euthanized 36 days after tumor injection by CO2 inhalation. […] Nude mice bearing MCF-7 tumors were given ERA-923, CCI-779 or the combination of both drugs.

[2] = system: BG-1 human ovarian cancer cells; assay: Inhibition of growth of BG-1 ovarian cancer cells (MTT), with MacSynergy II synergy analysis; format: cell-based; conditions: for Percent Inhibition: Table G, CCI-779 0 nM
Method: In these test procedures, rapamycin 42-ester with 3-hydroxy-2-(hydroxymethyl)-2-methylpropionic acid was used as a representative rapamycin, and 2-(4-hydroxy-phenyl)-3-methyl-1-[4-(2-piperdin-1-yl-ethoxy)-benzyl-1 H-indol-5-ol, raloxifene, and 4-hydroxytamoxifen were used as representative antiestrogens.
One day before the experiment, cells were plated in 96-well plates at a cell density of 2,500 cells/well in IMEM medium supplemented with 10% fetal bovine serum. The next day, cells were treated with various concentrations of antiestrogen and rapamycin 42-ester with 3-hydroxy-2-(hydroxymethyl)-2-methylpropionic acid (referred to as CCI-779 in the tables below). Five or six-days later, cell growth was monitored.

[3] = system: MCF-7 human breast cancer cells; assay: Inhibition of growth of MCF-7 breast cancer cells (MTT), with MacSynergy II synergy analysis;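 further: cells treated five or six days with single agents or combinations, growth read by MTT, synergy surface equals observed % inhibition minus Bliss additive prediction, values under 0% signal antagonism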
Method: MCF-7 human breast cancer cells were maintained at 37° C. in a humidified atmosphere of 5% CO2 and 95% air in IMEM medium supplemented with 10% fetal bovine serum. […] One day before the experiment, cells were plated in 96-well plates at a cell density of 2,500 cells/well in IMEM medium supplemented with 10% fetal bovine serum. The next day, cells were treated with various concentrations of antiestrogen and rapamycin 42-ester with 3-hydroxy-2-(hydroxymethyl)-2-methylpropionic acid (referred to as CCI-779 in the tables below). Five or six-days later, cell growth was monitored. MTT solution (20 ul) (0.5 mg/ml) was added to each well and cells were incubated for an additional 4 h. The solution was then removed and 150 ul of DMSO added. The intensity of dark blue color corresponding to number of cells was read at 540 nm with an automated plate reader.
Briefly, theoretical additive interactions were calculated from the dose-response curves of each individual drug based on Bliss independence model. The calculated additive surface was then subtracted from the experimental surface to obtain a synergy surface representing % inhibition above the calculated additive value-synergy index. […] Likewise, any peak below the 0% plane is indicative of antagonism.

[4] = BG-1, antiestrogen in combination with CCI-779, MacSynergy II, Bliss independence model
[5] = MCF-7, antiestrogen in combination with CCI-779, MacSynergy II, Bliss independence model

Compound: Cc1c(-c2ccc(O)cc2)n(Cc2ccc(OCCN3CCCCC3)cc2)c2ccc(O)cc12 [ERA-923]
- Tumor size (mean ± standard error) ([1]; day 14 after tumor implantation): 480 ± 91 mg
- Tumor size (mean ± standard error) ([1]; day 21 after tumor implantation): 679 ± 127 mg
- Tumor size (mean ± standard error) ([1]; day 28 after tumor implantation): 842 ± 163 mg
- Tumor size (mean ± standard error) ([1]; day 36 after tumor implantation): 993 ± 197 mg
- inhibition of tumor growth ([1]; nude mice bearing MCF-7 tumors, growth inhibition=experimental value−200 (baseline)/control value −200): approximately 35%
- Antagonsim [2, 4]: 0.0 μM^2%
- Synergy [2, 4]: 25.9 μM^2%
- Percent Inhibition ([2]; ERA-923 0.25 nM): 14.72%
- Percent Inhibition ([2]; ERA-923 0.5 nM): 24.14%
- Percent Inhibition ([2]; ERA-923 1 nM): 48.93%
- Percent Inhibition ([2]; ERA-923 2 nM): 57.19%
- Percent Inhibition ([2]; ERA-923 3 nM): 72.54%
- Percent Inhibition ([2]; ERA-923 4 nM): 80.34%
- Percent Inhibition ([2]; ERA-923 5 nM): 75.94%
- increase of growth-inhibitory effect as estimated by the IC50 ([3]; ERA-923 in the presence of non-inhibitory concentrations of CCI-779): approximately 10 fold
- Antagonsim [3, 5]: 0.0 μM^2%
- Synergy [3, 5]: 138.0 μM^2%
- Percent Inhibition ([3]; Table A, CCI-779 0 nM, ERA-923 0.25 nM): 9%
- Percent Inhibition ([3]; Table A, CCI-779 0 nM, ERA-923 0.5 nM): 7.59%
- Percent Inhibition ([3]; Table A, CCI-779 0 nM, ERA-923 1 nM): 37.56%
- Percent Inhibition ([3]; Table A, CCI-779 0 nM, ERA-923 2 nM): 54.65%
- Percent Inhibition ([3]; Table A, CCI-779 0 nM, ERA-923 3 nM): 59.39%
- Percent Inhibition ([3]; Table A, CCI-779 0 nM, ERA-923 4 nM): 60.04%
- Percent Inhibition ([3]; Table A, CCI-779 0 nM, ERA-923 5 nM): 61.12%
- Percent Inhibition ([3]; Table D, ERA-923 0 nM + ERA-923 0.25 nM): −0.78%
- Percent Inhibition ([3]; Table D, ERA-923 0 nM + ERA-923 0.5 nM): 26.09%
- Percent Inhibition ([3]; Table D, ERA-923 0 nM + ERA-923 1 nM): 54.91%
- Percent Inhibition ([3]; Table D, ERA-923 0 nM + ERA-923 2 nM): 71.82%
- Percent Inhibition ([3]; Table D, ERA-923 0 nM + ERA-923 3 nM): 87.65%
- Percent Inhibition ([3]; Table D, ERA-923 0 nM + ERA-923 4 nM): 78.72%
- Percent Inhibition ([3]; Table D, ERA-923 0 nM + ERA-923 5 nM): 79.25%
- Percent Inhibition ([3]; Table D, ERA-923 0.25 nM + ERA-923 0 nM): 6.69%
- Percent Inhibition ([3]; Table D, ERA-923 0.25 nM + ERA-923 0.25 nM): 35.93%
- Percent Inhibition ([3]; Table D, ERA-923 0.25 nM + ERA-923 0.5 nM): 56.79%
- Percent Inhibition ([3]; Table D, ERA-923 0.25 nM + ERA-923 1 nM): 64.27%
- Percent Inhibition ([3]; Table D, ERA-923 0.25 nM + ERA-923 2 nM): 76.33%
- Percent Inhibition ([3]; Table D, ERA-923 0.25 nM + ERA-923 3 nM): 78.99%
- Percent Inhibition ([3]; Table D, ERA-923 0.25 nM + ERA-923 4 nM): 78.39%
- Percent Inhibition ([3]; Table D, ERA-923 0.25 nM + ERA-923 5 nM): 79.68%
- Percent Inhibition ([3]; Table D, ERA-923 0.5 nM + ERA-923 0 nM): 8.17%
- Percent Inhibition ([3]; Table D, ERA-923 0.5 nM + ERA-923 0.25 nM): 53.61%
- Percent Inhibition ([3]; Table D, ERA-923 0.5 nM + ERA-923 0.5 nM): 63.08%
- Percent Inhibition ([3]; Table D, ERA-923 0.5 nM + ERA-923 1 nM): 68.58%
- Percent Inhibition ([3]; Table D, ERA-923 0.5 nM + ERA-923 2 nM): 73.71%
- Percent Inhibition ([3]; Table D, ERA-923 0.5 nM + ERA-923 3 nM): 81.21%
- Percent Inhibition ([3]; Table D, ERA-923 0.5 nM + ERA-923 4 nM): 79.57%
- Percent Inhibition ([3]; Table D, ERA-923 0.5 nM + ERA-923 5 nM): 81.43%
- Percent Inhibition ([3]; Table D, ERA-923 1 nM + ERA-923 0 nM): 42.1%
- Percent Inhibition ([3]; Table D, ERA-923 1 nM + ERA-923 0.25 nM): 66.83%
- Percent Inhibition ([3]; Table D, ERA-923 1 nM + ERA-923 0.5 nM): 75.09%
- Percent Inhibition ([3]; Table D, ERA-923 1 nM + ERA-923 1 nM): 74.24%
- Percent Inhibition ([3]; Table D, ERA-923 1 nM + ERA-923 2 nM): 74.07%
- Percent Inhibition ([3]; Table D, ERA-923 1 nM + ERA-923 3 nM): 76.56%
- Percent Inhibition ([3]; Table D, ERA-923 1 nM + ERA-923 4 nM): 80.45%
- Percent Inhibition ([3]; Table D, ERA-923 1 nM + ERA-923 5 nM): 82.97%
- Percent Inhibition ([3]; Table D, ERA-923 2 nM + ERA-923 0 nM): 67.81%
- Percent Inhibition ([3]; Table D, ERA-923 2 nM + ERA-923 0.25 nM): 74.73%
- Percent Inhibition ([3]; Table D, ERA-923 2 nM + ERA-923 0.5 nM): 75.08%
- Percent Inhibition ([3]; Table D, ERA-923 2 nM + ERA-923 1 nM): 75.36%
- Percent Inhibition ([3]; Table D, ERA-923 2 nM + ERA-923 2 nM): 75.03%
- Percent Inhibition ([3]; Table D, ERA-923 2 nM + ERA-923 3 nM): 78.5%
- Percent Inhibition ([3]; Table D, ERA-923 2 nM + ERA-923 4 nM): 81.23%
- Percent Inhibition ([3]; Table D, ERA-923 2 nM + ERA-923 5 nM): 82.02%
- Percent Inhibition ([3]; Table D, ERA-923 3 nM + ERA-923 0 nM): 52.23%
- Percent Inhibition ([3]; Table D, ERA-923 3 nM + ERA-923 0.25 nM): 75.24%
- Percent Inhibition ([3]; Table D, ERA-923 3 nM + ERA-923 0.5 nM): 76.06%
- Percent Inhibition ([3]; Table D, ERA-923 3 nM + ERA-923 1 nM): 77.68%
- Percent Inhibition ([3]; Table D, ERA-923 3 nM + ERA-923 2 nM): 76.67%
- Percent Inhibition ([3]; Table D, ERA-923 3 nM + ERA-923 3 nM): 81.51%
- Percent Inhibition ([3]; Table D, ERA-923 3 nM + ERA-923 4 nM): 83.2%
- Percent Inhibition ([3]; Table D, ERA-923 3 nM + ERA-923 5 nM): 82.87%
- Percent Inhibition ([3]; Table D, ERA-923 4 nM + ERA-923 0 nM): 74.49%
- Percent Inhibition ([3]; Table D, ERA-923 4 nM + ERA-923 0.25 nM): 79.39%
- Percent Inhibition ([3]; Table D, ERA-923 4 nM + ERA-923 0.5 nM): 80.92%
- Percent Inhibition ([3]; Table D, ERA-923 4 nM + ERA-923 1 nM): 77.2%
- Percent Inhibition ([3]; Table D, ERA-923 4 nM + ERA-923 2 nM): 78.2%
- Percent Inhibition ([3]; Table D, ERA-923 4 nM + ERA-923 3 nM): 79.28%
- Percent Inhibition ([3]; Table D, ERA-923 4 nM + ERA-923 4 nM): 83.28%
- Percent Inhibition ([3]; Table D, ERA-923 4 nM + ERA-923 5 nM): 85.92%

Reference: patent US20020045638A1, “Method of treating estrogen receptor positive carcinoma” (priority 2000, published 2002)
